Each structure is given as a SMILES string.

Common to all, as to assay type: in vivo, rat
The test system of assay [1] is male spontaneously hypertensive rats (SHR). Briefly: Pharmacological Test-1: blood pressure after oral administration in spontaneously hypertensive rats. The conditions noted are these: for Blood Pressure (mmHg) 1 hr. / Blood Pressure (mmHg) 3 hrs. / Blood Pressure (mmHg) 6 hrs. / Blood Pressure (mmHg) 9 hrs. / Blood Pressure (mmHg) 12 hrs.: oral; for Blood Pressure (mmHg) 1 hr.: variation of blood pressure 1 hr. after administration; for Blood Pressure (mmHg) 3 hrs.: variation of blood pressure 3 hrs. after administration; for Blood Pressure (mmHg) 6 hrs.: variation of blood pressure 6 hrs. after administration; for lapse of time until approximately maximum blood pressure depression / blood pressure depression, result in words: summary of Table 1; for Blood Pressure (mmHg) 9 hrs.: variation of blood pressure 9 hrs. after administration; for Blood Pressure (mmHg) 12 hrs.: variation of blood pressure 12 hrs. after administration. The method, then: (§1) This test was performed using male spontaneously hypertensive rats (SHR, 15 weeks old or older, 300 to 400 g). Under halothane anesthesia, the left femoral arteries of the rats were cannulated using a polyethylene cannula. The cannula was connected to a device for blood pressure measurement. Then, the rats were placed in the Bollman-type cages. After one hour, it was confirmed that the blood pressure was kept constant. When the rats waked, they were orally administered with the test compound, and variation of blood pressure after the administration was measured as time passed. The test compound was suspended or dissolved in 1% aqueous methylcellulose solution and administered in an amount of 0.2 mL per 100 g of body weight.

Assay [2] has as its system normal male rats of Wister strain. Briefly: Pharmacological Test-4: blood pressure after oral administration in normal rats. The conditions noted are these: for Blood Pressure (mmHg) 1 hr. / Blood Pressure (mmHg) 3 hrs. / Blood Pressure (mmHg) 6 hrs. / Blood Pressure (mmHg) 9 hrs. / Blood Pressure (mmHg) 12 hrs.: oral; for Blood Pressure (mmHg) 1 hr.: 1 hr. after administration; for Blood Pressure (mmHg) 3 hrs.: 3 hrs. after administration; for Blood Pressure (mmHg) 6 hrs.: 6 hrs. after administration; for Blood Pressure (mmHg) 9 hrs.: 9 hrs. after administration; for Blood Pressure (mmHg) 12 hrs.: 12 hrs. after administration; for effect on normal blood pressure, result in words: summary of Table 4. Here is the method: as §1
This test was performed by measuring the blood pressure in the same manner as in the above pharmacological test-1 using normal male rats of Wister strain (15 weeks old or older, 300 to 400 g, not-fasted). The test results are set forth in Table 4.The compound of the invention examined in this test was the same as that employed in the pharmacological test-1.

Assay [3] deals with male DOCA salt hypertensive rats (DOCAR). Put plainly: Pharmacological Test-2: blood pressure after oral administration in DOCA salt hypertensive rats. As to conditions: for Blood Pressure (mmHg) 1 hr. / Blood Pressure (mmHg) 3 hrs. / Blood Pressure (mmHg) 6 hrs. / Blood Pressure (mmHg) 9 hrs. / Blood Pressure (mmHg) 12 hrs.: DOCA salt hypertensive rats, oral, 3 mg/kg; for Blood Pressure (mmHg) 1 hr.: 1 hr. after administration; for Blood Pressure (mmHg) 3 hrs.: 3 hrs. after administration; for Blood Pressure (mmHg) 6 hrs.: 6 hrs. after administration; for Blood Pressure (mmHg) 9 hrs.: 9 hrs. after administration; for Blood Pressure (mmHg) 12 hrs.: 12 hrs. after administration; for lapse of time until approximately maximum blood pressure depression: summary of 'Tables 1 and 2' as printed after Table 3. The method, then:
as §1
This test was performed by measuring the blood pressure in the same manner as in the above pharmacological test-1 using male DOCA salt hypertensive rats (DOCAR, 15 weeks old or older, 300 to 400 g, not-fasted). The test results are set forth in Table 2.The compound of the invention examined in this test was the same as that employed in the pharmacological test-1.

The subject of assay [4] is male Dahl salt sensitive male rats (DahlSR). Put plainly: Pharmacological Test-3: blood pressure after oral administration in Dahl salt sensitive rats. As to conditions: 3 mg/kg; for Blood Pressure (mmHg) 1 hr.: 1 hr. after administration; for Blood Pressure (mmHg) 3 hrs.: 3 hrs. after administration; for Blood Pressure (mmHg) 6 hrs.: 6 hrs. after administration; for Blood Pressure (mmHg) 9 hrs.: 9 hrs. after administration; for Blood Pressure (mmHg) 12 hrs.: 12 hrs. after administration. The method, then: as §1
This test was performed in the same manner as in the above pharmacological test-1 using male Dahl salt sensitive male rats (DahlSR, 15 weeks old or older, 300 to 400 g, not-fasted). The compound of the invention examined in this test was the same as that employed in the pharmacological test-1.

For `COc1cc2nc(N3CCN(C(=O)c4ccccc4)CC3)nc(N)c2cc1OC.Cl` [Comp. [C], 4-amino-2-(4-benzoyl-1-piperazinyl)-6,7-dimethoxyquinazoline hydrochloride], in assay [1] (1 mg/kg), the “Blood Pressure (mmHg) 1 hr.” value is reported as −36 mmHg, the “Blood Pressure (mmHg) 3 hrs.” value is reported as −31 mmHg and the “Blood Pressure (mmHg) 6 hrs.” value was −39 mmHg. In assay [1] (3 mg/kg), the “Blood Pressure (mmHg) 1 hr.” value was −64 mmHg, the “Blood Pressure (mmHg) 3 hrs.” value is given as −64 mmHg and the “Blood Pressure (mmHg) 6 hrs.” value is given as −61 mmHg. The “lapse of time until approximately maximum blood pressure depression” value (shortened to “lapse”) in assay [1] is on record as “one hour”.
Regarding `COc1cc2nc(N3CCN(C(=O)c4ccc(O)cc4)CC3)nc(N)c2cc1OC.Cl` [Comp. [D], 4-amino-2-[4-(4-hydroxybenzoyl)-1-piperazinyl]-6,7-dimethoxyquinazoline hydrochloride], in assay [1] (1 mg/kg), the “Blood Pressure (mmHg) 1 hr.” value was 2 mmHg, the “Blood Pressure (mmHg) 3 hrs.” value was −3 mmHg and the “Blood Pressure (mmHg) 6 hrs.” value was −6 mmHg. In assay [1] (3 mg/kg), the “Blood Pressure (mmHg) 1 hr.” value is listed as −5 mmHg, the “Blood Pressure (mmHg) 3 hrs.” value is −6 mmHg and the “Blood Pressure (mmHg) 6 hrs.” value was −8 mmHg. Besides, the “blood pressure depression, result in words” value in assay [1] is “very little blood pressure depression”.
For `COc1cc2nc(N3CCN(C(=O)C4COc5ccccc5O4)CC3)nc(N)c2cc1OC` (stereo not drawn) [Doxa., doxazosin mesilate], in assay [2] (3 mg/kg), the “Blood Pressure (mmHg) 1 hr.” value is reported as −24 mmHg, the “Blood Pressure (mmHg) 3 hrs.” value was −19 mmHg, the “Blood Pressure (mmHg) 6 hrs.” value is listed as −20 mmHg and the “Blood Pressure (mmHg) 9 hrs.” value was −22 mmHg. In addition, the “Blood Pressure (mmHg) 12 hrs.” value in assay [2] (3 mg/kg) is given as −23 mmHg. In addition, the “effect on normal blood pressure, result in words” value (shortened to “effect on normal blood pressure”) in assay [2] was “largely decrease normal blood pressure”. In addition, in assay [1] (1 mg/kg), the “Blood Pressure (mmHg) 1 hr.” value is −19 mmHg, the “Blood Pressure (mmHg) 3 hrs.” value was −21 mmHg and the “Blood Pressure (mmHg) 6 hrs.” value is −19 mmHg. Moreover, in assay [1] (3 mg/kg), the “Blood Pressure (mmHg) 1 hr.” value is −35 mmHg, the “Blood Pressure (mmHg) 3 hrs.” value is recorded as −32 mmHg and the “Blood Pressure (mmHg) 6 hrs.” value is given as −29 mmHg. Also, in assay [1] (10 mg/kg), the “Blood Pressure (mmHg) 1 hr.” value is listed as −37 mmHg, the “Blood Pressure (mmHg) 3 hrs.” value was −50 mmHg and the “Blood Pressure (mmHg) 6 hrs.” value is on record as −35 mmHg.
Regarding `COc1cc2nc(N3CCN(C(=O)c4cc(C(C)(C)C)c(O)c(C(C)(C)C)c4)CC3)nc(N)c2cc1OC.Cl` [Invention, 4-amino-2-[4-(3,5-di-t-butyl-4-hydroxybenzoyl)-1-piperazinyl]-6,7-dimethoxyquinazoline hydrochloride], the “Blood Pressure (mmHg) 1 hr.” value in assay [3] was −15 mmHg; in assay [2] (1 mg/kg), −4 mmHg; in assay [2] (3 mg/kg), −5 mmHg; in assay [1] (1 mg/kg), −4 mmHg; in assay [1] (3 mg/kg), −29 mmHg; in assay [4], −11 mmHg. Also, the “Blood Pressure (mmHg) 3 hrs.” value in assay [3] is on record as −42 mmHg; in assay [2] (1 mg/kg), −11 mmHg; in assay [2] (3 mg/kg), −9 mmHg; in assay [1] (1 mg/kg), −25 mmHg; in assay [1] (3 mg/kg), −60 mmHg; in assay [4], −25 mmHg. Also, the “Blood Pressure (mmHg) 6 hrs.” value is −62 mmHg in assay [3]; −21 mmHg in assay [2] (1 mg/kg); −19 mmHg in assay [2] (3 mg/kg); −41 mmHg in assay [1] (1 mg/kg); −75 mmHg in assay [1] (3 mg/kg); −49 mmHg in assay [4]. Moreover, the “Blood Pressure (mmHg) 9 hrs.” value in assay [3] is given as −49 mmHg; in assay [2] (1 mg/kg), −22 mmHg; in assay [2] (3 mg/kg), −21 mmHg; in assay [1] (1 mg/kg), −44 mmHg; in assay [1] (3 mg/kg), −64 mmHg; in assay [4], −50 mmHg. Besides, the “Blood Pressure (mmHg) 12 hrs.” value in assay [3] is given as −37 mmHg; in assay [2] (1 mg/kg), −23 mmHg; in assay [2] (3 mg/kg) it was −24 mmHg; in assay [1] (1 mg/kg), −39 mmHg; in assay [1] (3 mg/kg) it was −60 mmHg; in assay [4], −52 mmHg. Further, the “lapse” value in assay [3] and in assay [1] was “six hours” throughout. The “effect on normal blood pressure” value in assay [2] was “affects the normal blood pressure only slightly”. Moreover, the “blood pressure depression, result in words” value in assay [1] is listed as “slowly decreases the blood pressure”.
`COc1cc2nc(N3CCN(C(=O)c4ccco4)CC3)nc(N)c2cc1OC.Cl` [Prazo., prazosin hydrochloride]: the “Blood Pressure (mmHg) 1 hr.” value in assay [3] is −81 mmHg; in assay [2] (1 mg/kg), −27 mmHg; in assay [2] (3 mg/kg) it was −44 mmHg; in assay [1] (1 mg/kg), −35 mmHg; in assay [1] (3 mg/kg), −57 mmHg; in assay [4], −48 mmHg. For the same molecule, the “Blood Pressure (mmHg) 3 hrs.” value in assay [3] is recorded as −62 mmHg; in assay [2] (1 mg/kg), −21 mmHg; in assay [2] (3 mg/kg) it was −40 mmHg; in assay [1] (1 mg/kg), −41 mmHg; in assay [1] (3 mg/kg), −69 mmHg; in assay [4] it was −41 mmHg. In addition, the “Blood Pressure (mmHg) 6 hrs.” value in assay [3] is reported as −69 mmHg; in assay [2] (1 mg/kg), −23 mmHg; in assay [2] (3 mg/kg), −33 mmHg; in assay [1] (1 mg/kg), −42 mmHg; in assay [1] (3 mg/kg), −65 mmHg; in assay [4], −43 mmHg. Further, the “Blood Pressure (mmHg) 9 hrs.” value is −50 mmHg in assay [3]; −23 mmHg in assay [2] (1 mg/kg); −33 mmHg in assay [2] (3 mg/kg); −41 mmHg in assay [1] (1 mg/kg); −61 mmHg in assay [1] (3 mg/kg); −40 mmHg in assay [4]. Moreover, the “Blood Pressure (mmHg) 12 hrs.” value in assay [3] is reported as −36 mmHg; in assay [2] (1 mg/kg), −24 mmHg; in assay [2] (3 mg/kg) it was −43 mmHg; in assay [1] (1 mg/kg) it was −38 mmHg; in assay [1] (3 mg/kg), −60 mmHg; in assay [4], −36 mmHg. Also, the entries for the “lapse” value in assay [3] and in assay [1] were “one to two hours” and “one hour”, respectively. Besides, the “effect on normal blood pressure” value in assay [2] is reported as “largely decrease normal blood pressure”.

Values taken from patent publication US6706705B1, “Quinazoline derivatives” (Nippon Chemiphar Co., Ltd., priority 1994, dated 2004).
